Experimental data as given in patent US8940742B2, “Heterocyclic compounds and uses thereof” (Infinity Pharmaceuticals, Inc., priority 2012, dated 2015).

Tests used:
PI3K γ = target: T1, PI3K γ (Homo sapiens, UniProt P48736); experiment: PI3-Kinase Promega ADP-Glo Max assay; assay type: biochemical; conditions: 40 nM kinase, 3 mM ATP, 500 uM diC8-PtdInsP
T1 construct: purchased Millipore
Method in brief: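 Human class I PI3K reactions ran 2 hours at room temperature, followed by stop solution (40 min) and detection mix (1 hour) before luminescence reading.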

RAJI p110 δ = RAJI p110 δ (Homo sapiens, UniProt O00329); experiment: RAJI p110 δ cellular assay (phospho-AKT);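 also: potency based on lowered phosphorylated AKT in RAJI cells, as a readout of PI3K-δ dependent B-cell receptor signaling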
RAJI p110 δ, sequence (O00329 whole entry): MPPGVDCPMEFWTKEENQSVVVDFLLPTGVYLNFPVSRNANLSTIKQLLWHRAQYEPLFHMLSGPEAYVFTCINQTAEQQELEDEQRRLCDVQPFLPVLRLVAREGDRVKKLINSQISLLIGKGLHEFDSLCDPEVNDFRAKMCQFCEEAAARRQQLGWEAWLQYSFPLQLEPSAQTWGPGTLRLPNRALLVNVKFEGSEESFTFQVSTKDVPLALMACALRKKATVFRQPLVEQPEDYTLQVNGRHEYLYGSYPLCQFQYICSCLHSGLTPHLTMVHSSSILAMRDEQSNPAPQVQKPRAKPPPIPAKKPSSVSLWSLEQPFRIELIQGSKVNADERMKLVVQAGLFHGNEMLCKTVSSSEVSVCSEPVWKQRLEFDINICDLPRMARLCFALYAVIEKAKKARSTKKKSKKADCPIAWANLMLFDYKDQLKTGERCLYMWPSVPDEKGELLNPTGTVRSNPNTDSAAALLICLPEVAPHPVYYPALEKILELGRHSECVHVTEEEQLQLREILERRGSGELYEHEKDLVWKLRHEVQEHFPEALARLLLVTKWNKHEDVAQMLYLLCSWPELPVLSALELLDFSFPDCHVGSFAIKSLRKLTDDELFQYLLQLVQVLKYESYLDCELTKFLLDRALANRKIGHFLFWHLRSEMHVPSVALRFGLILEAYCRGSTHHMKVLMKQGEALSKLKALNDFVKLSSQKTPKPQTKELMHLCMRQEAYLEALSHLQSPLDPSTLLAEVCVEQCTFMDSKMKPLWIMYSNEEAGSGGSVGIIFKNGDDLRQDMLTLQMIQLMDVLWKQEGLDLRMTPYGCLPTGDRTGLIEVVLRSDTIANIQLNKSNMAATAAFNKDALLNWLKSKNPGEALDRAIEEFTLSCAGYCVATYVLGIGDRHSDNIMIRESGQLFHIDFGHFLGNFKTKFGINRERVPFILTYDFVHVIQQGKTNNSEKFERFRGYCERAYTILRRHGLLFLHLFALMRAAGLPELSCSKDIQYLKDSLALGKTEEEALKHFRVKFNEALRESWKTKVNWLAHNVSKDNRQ
RAJI p110 δ, sequence (P27986 whole entry partner): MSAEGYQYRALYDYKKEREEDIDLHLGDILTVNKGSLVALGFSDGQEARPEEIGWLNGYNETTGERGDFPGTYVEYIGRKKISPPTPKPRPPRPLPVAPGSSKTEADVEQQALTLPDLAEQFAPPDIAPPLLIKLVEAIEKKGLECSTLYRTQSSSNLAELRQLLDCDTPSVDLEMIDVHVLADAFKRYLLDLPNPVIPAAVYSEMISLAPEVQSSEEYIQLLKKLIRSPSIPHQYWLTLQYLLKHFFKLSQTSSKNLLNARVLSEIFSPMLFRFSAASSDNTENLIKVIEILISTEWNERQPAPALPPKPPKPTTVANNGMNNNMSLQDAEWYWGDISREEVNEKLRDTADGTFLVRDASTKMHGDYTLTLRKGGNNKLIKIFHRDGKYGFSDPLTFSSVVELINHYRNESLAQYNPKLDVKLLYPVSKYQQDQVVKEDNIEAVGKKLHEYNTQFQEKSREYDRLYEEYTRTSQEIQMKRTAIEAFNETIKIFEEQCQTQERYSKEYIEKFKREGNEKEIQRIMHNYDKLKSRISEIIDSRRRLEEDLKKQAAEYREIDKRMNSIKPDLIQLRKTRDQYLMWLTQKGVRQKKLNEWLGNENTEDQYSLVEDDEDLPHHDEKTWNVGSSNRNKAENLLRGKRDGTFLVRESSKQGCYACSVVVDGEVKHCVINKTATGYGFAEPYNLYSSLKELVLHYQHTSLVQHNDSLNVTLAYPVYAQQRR
Description: (a) PI3K-δ Selective Assay
Reduction of phospho-AKT is indicative of compounds that may inhibit B-cell proliferation and function in certain diseases.

Raw264.7 p110 γ = target: T2, Raw264.7 p110 γ (Mus musculus, UniProt Q9JHG7); experiment: Raw264.7 p110 γ cellular assay (phospho-AKT); assay type: cell-based; conditions: serum-starved RAW264.7 cells stimulated with C5a
T2 construct: reduction of phospho-AKT in stimulated RAW 264.7 cells; endogenous in cells; host or cells: RAW264.7 macrophages
T2 sequence (Q9JHG7 whole entry): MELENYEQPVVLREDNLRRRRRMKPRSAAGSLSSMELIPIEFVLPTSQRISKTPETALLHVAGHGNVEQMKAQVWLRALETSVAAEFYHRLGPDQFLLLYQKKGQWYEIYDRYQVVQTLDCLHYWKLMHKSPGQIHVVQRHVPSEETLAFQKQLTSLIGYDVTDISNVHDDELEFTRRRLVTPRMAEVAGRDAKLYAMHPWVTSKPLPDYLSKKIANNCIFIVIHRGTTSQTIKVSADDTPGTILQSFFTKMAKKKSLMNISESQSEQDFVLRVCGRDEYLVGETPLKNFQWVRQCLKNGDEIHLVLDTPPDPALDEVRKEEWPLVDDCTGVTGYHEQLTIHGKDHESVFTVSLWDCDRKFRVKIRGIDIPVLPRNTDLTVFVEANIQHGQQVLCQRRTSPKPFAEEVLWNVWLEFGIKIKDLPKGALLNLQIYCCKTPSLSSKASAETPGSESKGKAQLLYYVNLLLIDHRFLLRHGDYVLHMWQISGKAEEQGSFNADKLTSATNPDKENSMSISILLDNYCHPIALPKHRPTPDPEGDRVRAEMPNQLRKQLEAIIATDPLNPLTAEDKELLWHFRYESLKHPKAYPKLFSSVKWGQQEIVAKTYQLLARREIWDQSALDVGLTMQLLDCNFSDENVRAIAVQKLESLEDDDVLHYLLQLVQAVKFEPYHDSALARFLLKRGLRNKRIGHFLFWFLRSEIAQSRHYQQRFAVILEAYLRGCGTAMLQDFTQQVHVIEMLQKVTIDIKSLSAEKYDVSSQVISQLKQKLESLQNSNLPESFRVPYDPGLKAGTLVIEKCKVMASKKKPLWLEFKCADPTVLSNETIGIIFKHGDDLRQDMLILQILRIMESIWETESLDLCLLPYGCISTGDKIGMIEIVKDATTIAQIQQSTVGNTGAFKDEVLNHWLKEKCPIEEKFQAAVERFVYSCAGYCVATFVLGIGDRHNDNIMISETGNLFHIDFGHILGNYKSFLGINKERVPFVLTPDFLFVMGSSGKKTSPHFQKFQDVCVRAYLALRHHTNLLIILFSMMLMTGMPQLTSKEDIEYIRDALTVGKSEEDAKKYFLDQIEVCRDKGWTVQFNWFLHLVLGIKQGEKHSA
Description: (b) PI3K-γ Selective Assay
Briefly, serum-starved PAW264.7 cells are stimulated with a known GPCR agonist C5a. […] Cells can be treated with test compounds prior to, simultaneously with, or subsequent to the stimulation by C5a. RAW 264.7 cells respond to the complement component fragment C5a through activation of the C5a receptor, and the C5a receptor activates macrophages and induces cell migration.

PI3K α = target: T3, PI3K α (Homo sapiens, UniProt P42336); experiment: PI3-Kinase Promega ADP-Glo Max assay; assay type: biochemical; conditions: 20 nM kinase, 3 mM ATP, 500 uM diC8-PtdInsP
T3 construct: purchased Millipore
Method in brief: (§1)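 Human class I PI3K (20 nM α or δ, 40 nM β) pre-incubated 15 min with compound in HEPES pH 7.4 buffer with MgCl2, then reacted 2 h at room temperature with 3 mM ATP and 500 uM diC8-PtdInsP. ADP measured by ADP-Glo Max luminescence; % inhibition fitted to 4-parameter logistic for IC50.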

PI3K δ = target: T4, PI3K δ (Homo sapiens, UniProt O00329); experiment: PI3-Kinase Promega ADP-Glo Max assay; assay type: biochemical; conditions: 20 nM kinase, 3 mM ATP, 500 uM diC8-PtdInsP
T4 construct: purchased Millipore
T4 sequence (O00329 whole entry): as the sequence (O00329 whole entry) above
T4 sequence (P27986 whole entry partner): as the sequence (P27986 whole entry partner) above
Method in brief: as §1

PI3K β = target: T5, PI3K β (Homo sapiens, UniProt P42338); experiment: PI3-Kinase Promega ADP-Glo Max assay; assay type: biochemical; conditions: 40 nM kinase, 3 mM ATP, 500 uM diC8-PtdInsP
T5 construct: purchased Millipore
Method in brief: as §1

T1 sequence (P48736 whole entry): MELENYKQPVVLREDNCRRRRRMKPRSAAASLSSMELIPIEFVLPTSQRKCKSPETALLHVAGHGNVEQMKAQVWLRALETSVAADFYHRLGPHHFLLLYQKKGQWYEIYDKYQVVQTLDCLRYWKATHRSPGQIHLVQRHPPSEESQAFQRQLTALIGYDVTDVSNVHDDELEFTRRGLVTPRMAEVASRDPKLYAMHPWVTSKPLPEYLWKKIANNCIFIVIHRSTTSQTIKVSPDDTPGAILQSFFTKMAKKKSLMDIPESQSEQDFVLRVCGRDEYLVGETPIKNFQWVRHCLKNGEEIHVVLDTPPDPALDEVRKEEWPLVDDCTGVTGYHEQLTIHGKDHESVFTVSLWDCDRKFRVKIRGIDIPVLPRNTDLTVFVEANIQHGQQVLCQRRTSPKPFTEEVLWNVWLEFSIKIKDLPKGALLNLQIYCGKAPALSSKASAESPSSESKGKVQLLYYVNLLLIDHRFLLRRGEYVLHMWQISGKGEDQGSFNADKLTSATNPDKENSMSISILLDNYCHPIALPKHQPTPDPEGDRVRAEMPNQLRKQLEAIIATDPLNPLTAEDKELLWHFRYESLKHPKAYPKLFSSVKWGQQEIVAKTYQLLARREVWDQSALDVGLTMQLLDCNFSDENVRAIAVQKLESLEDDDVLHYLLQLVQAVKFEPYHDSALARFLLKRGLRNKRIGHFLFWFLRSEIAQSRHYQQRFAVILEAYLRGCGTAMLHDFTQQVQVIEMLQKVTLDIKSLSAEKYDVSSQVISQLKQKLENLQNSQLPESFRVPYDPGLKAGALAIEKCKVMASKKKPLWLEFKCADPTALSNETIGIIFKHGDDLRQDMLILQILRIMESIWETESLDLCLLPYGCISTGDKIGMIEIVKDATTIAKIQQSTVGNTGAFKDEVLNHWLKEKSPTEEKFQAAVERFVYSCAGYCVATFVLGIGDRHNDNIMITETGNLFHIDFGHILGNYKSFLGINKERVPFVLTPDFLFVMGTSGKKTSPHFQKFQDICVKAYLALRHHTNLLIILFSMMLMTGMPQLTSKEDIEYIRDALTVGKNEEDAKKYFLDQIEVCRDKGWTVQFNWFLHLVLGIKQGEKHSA

Row | SMILES | IC50 (PI3K γ) | IC50 (RAJI p110 δ) | IC50 (Raw264.7 p110 γ) | IC50 (PI3K α) | IC50 (PI3K δ) | IC50 (PI3K β)
1 | C[C@H](NC(=O)c1c(N)nn2cccnc12)c1cc2cccc(-c3cccs3)c2c(=O)n1-c1ccccc1 [Compound 271] | 0.1 to 1 µM | 0.1 to 1 µM | < 0.1 µM | 1 to 10 µM | 1 to 10 µM | 1 to 10 µM
2 | C[C@H](NC(=O)c1c(N)nn2cccnc12)c1cc2cccc(C#CCCNC(=O)[C@H]3CCC(=O)O3)c2c(=O)n1-c1ccccc1 [Compound 161] | 0.1 to 1 µM | < 0.1 µM | < 0.1 µM | 1 to 10 µM | 1 to 10 µM | > 10 µM
3 | C[C@H](NC(=O)c1c(N)nn2cccnc12)c1cc2cccc(Cl)c2c(=O)n1C1CC1 [Compound 77] | 0.1 to 1 µM | < 0.1 µM | < 0.1 µM | 0.1 to 1 µM | 0.1 to 1 µM | < 0.1 µM
4 | C[C@H](NC(=O)c1c(N)nn2cccnc12)c1cc2cccc(Cl)c2c(=O)n1-c1cccc(F)c1 [Compound 78] | < 0.1 µM | < 0.1 µM | < 0.1 µM | 1 to 10 µM | 0.1 to 1 µM | 0.1 to 1 µM
5 | Cc1ccn2ncc(C(=O)N[C@@H](C)c3cc4cccc(Cl)c4c(=O)n3-c3ccccc3)c2n1 [Compound 82] | 1 to 10 µM | 0.1 to 1 µM | 0.1 to 1 µM | > 10 µM | 1 to 10 µM | 1 to 10 µM
6 | C[C@H](NC(=O)c1c(N)ncc2cccnc12)c1cc2cccc(N3CCOCC3)c2c(=O)n1-c1ccccc1 [Compound 214] | 0.1 to 1 µM | < 0.1 µM | < 0.1 µM | > 10 µM | 1 to 10 µM | > 10 µM
7 | Cc1cnc(C(=O)N[C@@H](C)c2cc3cccc(C(F)(F)F)c3c(=O)n2-c2ccccc2)c(N)n1 [Compound 80] | 1 to 10 µM | 1 to 10 µM | 0.1 to 1 µM | > 10 µM | > 10 µM | > 10 µM
8 | C[C@H](NC(=O)c1nc(-c2cncc(NS(C)(=O)=O)c2)cnc1N)c1cc2cccc(Cl)c2c(=O)n1-c1ccccc1 [Compound 107] | < 0.1 µM | 0.1 to 1 µM | < 0.1 µM | 0.1 to 1 µM | 0.1 to 1 µM | < 0.1 µM
9 | C[C@H](NC(=O)c1nc(-c2cccc(NS(C)(=O)=O)c2)cnc1N)c1cc2cccc(Cl)c2c(=O)n1-c1ccccc1 [Compound 85] | < 0.1 µM | < 0.1 µM | < 0.1 µM | 1 to 10 µM | 1 to 10 µM | 0.1 to 1 µM
10 | C[C@H](NC(=O)c1c(N)nn2cccnc12)c1cc2cccc(Cl)c2c(=O)n1-c1ccc(F)c(F)c1 [Compound 75] | < 0.1 µM | 0.1 to 1 µM | < 0.1 µM | 1 to 10 µM | 1 to 10 µM | 1 to 10 µM
11 | CC(C)Oc1ccc(-c2cnc(N)c(C(=O)N[C@@H](C)c3cc4cccc(Cl)c4c(=O)n3-c3ccccc3)n2)cc1F [Compound 87] | 0.1 to 1 µM | 1 to 10 µM | 0.1 to 1 µM | 1 to 10 µM | 1 to 10 µM | > 10 µM
12 | CC(NC(=O)c1c(N)nn2cccnc12)c1cc2cccc(Cl)c2nc1-c1ccccc1 (stereo not drawn) [Compound 218] | 1 to 10 µM | < 0.1 µM | < 0.1 µM | > 10 µM | 1 to 10 µM | 1 to 10 µM

Other lines, results leading:

Row | IC50 (PI3K γ) | IC50 (RAJI p110 δ) | IC50 (Raw264.7 p110 γ) | IC50 (PI3K α) | IC50 (PI3K δ) | IC50 (PI3K β) | SMILES
13 | 0.1 to 1 µM | < 0.1 µM | < 0.1 µM | 1 to 10 µM | < 0.1 µM | < 0.1 µM | CC[C@H](NC(=O)c1c(N)nn2cccnc12)c1cc2cccc(Cl)c2c(=O)n1-c1ccccc1 [Compound 250]
14 | 1 to 10 µM | 0.1 to 1 µM | 1 to 10 µM | > 10 µM | > 10 µM | > 10 µM | C[C@H](NC(=O)c1nc(-c2ccccc2)cnc1N)c1cc2cccc(Cl)c2c(=O)n1-c1ccccc1 [Compound 42]
15 | < 0.1 µM | < 0.1 µM | < 0.1 µM | 1 to 10 µM | 1 to 10 µM | 1 to 10 µM | C[C@H](NC(=O)c1c(N)nn2cccnc12)c1cc2cccc(C#CCNC(=O)[C@H]3CCC(=O)O3)c2c(=O)n1-c1ccccc1 [Compound 158]
16 | 0.1 to 1 µM | < 0.1 µM | < 0.1 µM | 1 to 10 µM | 1 to 10 µM | > 10 µM | C[C@H](NC(=O)c1c(N)nn2cccnc12)c1cc2cccc(-c3ccncc3)c2c(=O)n1-c1ccccc1 [Compound 117]
17 | < 0.1 µM | 1 to 10 µM | 0.1 to 1 µM | 1 to 10 µM | 0.1 to 1 µM | 1 to 10 µM | C[C@H](NC(=O)c1c(N)nn2cccnc12)c1cc2cccc(C#CCNC(=O)C3CC(=O)CC(=O)C3)c2c(=O)n1-c1ccccc1 [Compound 156]
18 | < 0.1 µM | < 0.1 µM | < 0.1 µM | 0.1 to 1 µM | 0.1 to 1 µM | 1 to 10 µM | COc1cc(-c2cccc3nc([C@H](C)NC(=O)c4c(N)nn5cccnc45)n(-c4ccccc4)c(=O)c23)ccn1 [Compound 144]
19 | 1 to 10 µM | < 0.1 µM | < 0.1 µM | > 10 µM | 0.1 to 1 µM | 1 to 10 µM | C[C@H](NC(=O)c1cncc2cccnc12)c1cc2cccc(Cl)c2c(=O)n1-c1ccccc1 [Compound 45]
20 | 0.1 to 1 µM | < 0.1 µM | < 0.1 µM | 1 to 10 µM | 1 to 10 µM | 1 to 10 µM | C[C@H](NC(=O)c1nc(-c2cccc(S(=O)(=O)NC(C)(C)C)c2)cnc1N)c1cc2cccc(Cl)c2c(=O)n1-c1ccccc1 [Compound 86]
21 | 0.1 to 1 µM | < 0.1 µM | < 0.1 µM | > 10 µM | 1 to 10 µM | 1 to 10 µM | C[C@H](NC(=O)c1c(N)nn2cccnc12)c1cc2cccc(C#N)c2c(=O)n1-c1ccccc1 [Compound 227]
22 | 0.1 to 1 µM | 0.1 to 1 µM | < 0.1 µM | 1 to 10 µM | > 10 µM | 1 to 10 µM | C[C@H](NC(=O)c1nc(-c2cscn2)cnc1N)c1cc2cccc(Cl)c2c(=O)n1-c1ccccc1 [Compound 112]
23 | 0.1 to 1 µM | < 0.1 µM | < 0.1 µM | 1 to 10 µM | 1 to 10 µM | 0.1 to 1 µM | Cc1cc(C)n2nc(N)c(C(=O)N[C@@H](C)c3cc4cccc(Cl)c4c(=O)n3-c3ccccc3)c2n1 [Compound 152]
24 | 1 to 10 µM | < 0.1 µM | 1 to 10 µM | > 10 µM | < 0.1 µM | > 10 µM | C[C@H](NC(=O)c1nccnc1N)c1cc2cccc(-c3cccnc3)c2c(=O)n1-c1ccccc1 [Compound 55]
25 | < 0.1 µM | < 0.1 µM | < 0.1 µM | 0.1 to 1 µM | 0.1 to 1 µM | 0.1 to 1 µM | C#Cc1cccc2cc([C@H](C)NC(=O)c3c(N)nn4cccnc34)n(-c3ccccc3)c(=O)c12 [Compound 276]
